Measurements from paper PMC8213057, “Targeting ALK2: An Open Science Approach to Developing Therapeutics for the Treatment of Diffuse Intrinsic Pontine Glioma” (Journal of Medicinal Chemistry, 2020).
Several values for one entry are separate records, joined by “and”; a condition that tells them apart may be missing. Equal entries are not always repeated.

How the values were obtained:
[1] = target: CK1G3 (Homo sapiens, UniProt Q9Y6M4); experiment: biochemical; details: read-out: % enzyme activity, 1 μM; Run 1, Run 2
[2] = target: JAK2 (Homo sapiens, UniProt O60674); experiment: biochemical; details: read-out: % enzyme activity, 1 μM; Run 1, Run 2
[3] = target: HCK (Homo sapiens, UniProt P08631); experiment: biochemical; details: read-out: % enzyme activity, 1 μM; Run 1, Run 2
[4] = target: CAMK2g (Homo sapiens, UniProt Q13555); details: 1 μM; Run 1, Run 2
[5] = target: ROCK1 (Homo sapiens, UniProt Q13464); experiment: biochemical; details: read-out: % enzyme activity, 1 μM; Run 1, Run 2
[6] = target: T1, TNK1 (Homo sapiens, UniProt Q13470); experiment: biochemical; details: read-out: % enzyme activity, 1 μM; Run 1, Run 2
T1 sequence (Q13470 1-666): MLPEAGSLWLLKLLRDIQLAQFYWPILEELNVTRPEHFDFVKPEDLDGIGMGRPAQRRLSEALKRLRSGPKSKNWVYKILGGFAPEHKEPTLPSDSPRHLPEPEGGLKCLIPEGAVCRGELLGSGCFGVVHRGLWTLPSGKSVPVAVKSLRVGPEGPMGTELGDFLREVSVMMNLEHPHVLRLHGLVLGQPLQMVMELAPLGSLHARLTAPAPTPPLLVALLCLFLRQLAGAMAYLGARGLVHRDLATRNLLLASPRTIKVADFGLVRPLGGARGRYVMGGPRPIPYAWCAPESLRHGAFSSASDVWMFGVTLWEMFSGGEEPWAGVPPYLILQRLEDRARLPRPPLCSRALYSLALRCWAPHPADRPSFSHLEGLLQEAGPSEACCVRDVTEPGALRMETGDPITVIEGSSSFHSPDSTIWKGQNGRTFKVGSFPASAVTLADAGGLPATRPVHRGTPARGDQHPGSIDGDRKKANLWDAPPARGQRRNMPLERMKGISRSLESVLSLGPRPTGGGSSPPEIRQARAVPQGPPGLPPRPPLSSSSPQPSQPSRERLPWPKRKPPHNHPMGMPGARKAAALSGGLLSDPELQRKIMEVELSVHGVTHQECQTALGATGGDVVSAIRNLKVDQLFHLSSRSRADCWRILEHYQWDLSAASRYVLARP

[7] = target: STK33 (Homo sapiens, UniProt Q9BYT3); details: 1 μM; Run 1, Run 2
[8] = target: EPHA5 (Homo sapiens, UniProt P54756); experiment: biochemical; details: read-out: % enzyme activity, 1 μM; Run 1, Run 2
[9] = target: PKCeta (Homo sapiens, UniProt P24723); experiment: biochemical; details: read-out: % enzyme activity, 1 μM; Run 1, Run 2
[10] = target: T2, LKB1 (Homo sapiens, UniProt Q15831); experiment: biochemical; details: read-out: % enzyme activity, 1 μM; Run 1, Run 2
T2 sequence (Q15831 1-433): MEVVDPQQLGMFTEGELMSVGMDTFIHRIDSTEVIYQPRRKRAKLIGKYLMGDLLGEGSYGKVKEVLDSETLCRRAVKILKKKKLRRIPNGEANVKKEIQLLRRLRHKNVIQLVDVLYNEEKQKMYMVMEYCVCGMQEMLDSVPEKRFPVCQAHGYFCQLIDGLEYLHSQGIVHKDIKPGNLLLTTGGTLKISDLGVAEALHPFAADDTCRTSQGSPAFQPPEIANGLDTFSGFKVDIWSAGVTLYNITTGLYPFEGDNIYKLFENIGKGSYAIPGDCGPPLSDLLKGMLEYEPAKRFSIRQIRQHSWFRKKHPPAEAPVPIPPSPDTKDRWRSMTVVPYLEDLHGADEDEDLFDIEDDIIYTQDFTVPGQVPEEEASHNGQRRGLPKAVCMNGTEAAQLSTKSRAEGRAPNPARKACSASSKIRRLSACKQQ
T2 sequence (Q7RTN6 1-431 partner): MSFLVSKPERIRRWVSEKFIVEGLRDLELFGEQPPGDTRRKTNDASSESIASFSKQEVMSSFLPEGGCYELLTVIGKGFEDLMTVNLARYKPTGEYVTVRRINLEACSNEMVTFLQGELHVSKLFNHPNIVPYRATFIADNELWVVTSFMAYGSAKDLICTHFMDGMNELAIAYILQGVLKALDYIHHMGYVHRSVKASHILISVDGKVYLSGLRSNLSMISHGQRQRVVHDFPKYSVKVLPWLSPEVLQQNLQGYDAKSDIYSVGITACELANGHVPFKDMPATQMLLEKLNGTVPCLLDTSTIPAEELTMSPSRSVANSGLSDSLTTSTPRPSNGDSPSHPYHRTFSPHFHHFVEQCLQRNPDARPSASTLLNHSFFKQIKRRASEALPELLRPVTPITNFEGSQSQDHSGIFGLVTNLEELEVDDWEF
T2 sequence (Q9Y376 1-341 partner): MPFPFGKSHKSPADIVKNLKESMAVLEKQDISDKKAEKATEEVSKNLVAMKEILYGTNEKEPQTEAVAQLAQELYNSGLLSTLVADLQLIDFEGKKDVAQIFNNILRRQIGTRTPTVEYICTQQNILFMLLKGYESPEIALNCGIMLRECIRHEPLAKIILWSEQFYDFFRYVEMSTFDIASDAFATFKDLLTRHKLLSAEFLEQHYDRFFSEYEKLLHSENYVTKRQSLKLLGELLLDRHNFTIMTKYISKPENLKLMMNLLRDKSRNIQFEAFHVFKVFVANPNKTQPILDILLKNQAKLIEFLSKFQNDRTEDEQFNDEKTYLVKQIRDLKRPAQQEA

[11] = target: TESK1 (Homo sapiens, UniProt Q15569); experiment: biochemical; details: read-out: % enzyme activity, 1 μM; Run 1, Run 2
[12] = tested on: ALK1/ACVRL1
[13] = target: MAST3 (Homo sapiens, UniProt O60307); experiment: biochemical; details: read-out: % enzyme activity, 1 μM; Run 1, Run 2
[14] = target: MAPKAPK2 (Homo sapiens, UniProt P49137); experiment: biochemical; details: read-out: % enzyme activity, 1 μM; Run 1, Run 2
MAPKAPK2, sequence (P49137 whole entry): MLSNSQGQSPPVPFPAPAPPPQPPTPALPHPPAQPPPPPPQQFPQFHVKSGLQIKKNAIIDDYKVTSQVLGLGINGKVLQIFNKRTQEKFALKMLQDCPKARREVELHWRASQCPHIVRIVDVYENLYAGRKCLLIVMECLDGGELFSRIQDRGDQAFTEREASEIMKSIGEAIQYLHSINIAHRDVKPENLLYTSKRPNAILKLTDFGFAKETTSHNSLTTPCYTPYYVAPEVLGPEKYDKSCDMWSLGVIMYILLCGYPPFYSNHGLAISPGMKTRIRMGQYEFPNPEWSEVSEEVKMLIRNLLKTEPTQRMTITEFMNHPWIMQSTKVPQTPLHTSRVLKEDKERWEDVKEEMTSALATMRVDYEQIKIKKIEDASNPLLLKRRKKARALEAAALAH

PKCeta, sequence (P24723 whole entry): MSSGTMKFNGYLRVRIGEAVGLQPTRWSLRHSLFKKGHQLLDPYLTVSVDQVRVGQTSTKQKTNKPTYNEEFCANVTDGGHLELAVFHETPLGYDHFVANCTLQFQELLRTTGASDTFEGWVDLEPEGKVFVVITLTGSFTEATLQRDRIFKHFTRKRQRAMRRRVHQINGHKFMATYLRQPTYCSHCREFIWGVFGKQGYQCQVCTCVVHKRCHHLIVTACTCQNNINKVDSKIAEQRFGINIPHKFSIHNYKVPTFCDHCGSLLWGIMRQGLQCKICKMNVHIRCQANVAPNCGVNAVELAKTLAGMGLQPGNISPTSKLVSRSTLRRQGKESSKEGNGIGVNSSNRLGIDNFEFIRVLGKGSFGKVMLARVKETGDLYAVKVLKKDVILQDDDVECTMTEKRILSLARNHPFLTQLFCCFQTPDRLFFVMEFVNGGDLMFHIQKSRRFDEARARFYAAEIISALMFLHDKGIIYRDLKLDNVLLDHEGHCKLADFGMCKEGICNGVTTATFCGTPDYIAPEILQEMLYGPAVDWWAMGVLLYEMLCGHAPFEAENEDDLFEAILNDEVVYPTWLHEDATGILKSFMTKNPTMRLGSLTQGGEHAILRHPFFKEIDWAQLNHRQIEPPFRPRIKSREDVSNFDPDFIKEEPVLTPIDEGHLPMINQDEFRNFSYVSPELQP
JAK2, sequence (O60674 whole entry): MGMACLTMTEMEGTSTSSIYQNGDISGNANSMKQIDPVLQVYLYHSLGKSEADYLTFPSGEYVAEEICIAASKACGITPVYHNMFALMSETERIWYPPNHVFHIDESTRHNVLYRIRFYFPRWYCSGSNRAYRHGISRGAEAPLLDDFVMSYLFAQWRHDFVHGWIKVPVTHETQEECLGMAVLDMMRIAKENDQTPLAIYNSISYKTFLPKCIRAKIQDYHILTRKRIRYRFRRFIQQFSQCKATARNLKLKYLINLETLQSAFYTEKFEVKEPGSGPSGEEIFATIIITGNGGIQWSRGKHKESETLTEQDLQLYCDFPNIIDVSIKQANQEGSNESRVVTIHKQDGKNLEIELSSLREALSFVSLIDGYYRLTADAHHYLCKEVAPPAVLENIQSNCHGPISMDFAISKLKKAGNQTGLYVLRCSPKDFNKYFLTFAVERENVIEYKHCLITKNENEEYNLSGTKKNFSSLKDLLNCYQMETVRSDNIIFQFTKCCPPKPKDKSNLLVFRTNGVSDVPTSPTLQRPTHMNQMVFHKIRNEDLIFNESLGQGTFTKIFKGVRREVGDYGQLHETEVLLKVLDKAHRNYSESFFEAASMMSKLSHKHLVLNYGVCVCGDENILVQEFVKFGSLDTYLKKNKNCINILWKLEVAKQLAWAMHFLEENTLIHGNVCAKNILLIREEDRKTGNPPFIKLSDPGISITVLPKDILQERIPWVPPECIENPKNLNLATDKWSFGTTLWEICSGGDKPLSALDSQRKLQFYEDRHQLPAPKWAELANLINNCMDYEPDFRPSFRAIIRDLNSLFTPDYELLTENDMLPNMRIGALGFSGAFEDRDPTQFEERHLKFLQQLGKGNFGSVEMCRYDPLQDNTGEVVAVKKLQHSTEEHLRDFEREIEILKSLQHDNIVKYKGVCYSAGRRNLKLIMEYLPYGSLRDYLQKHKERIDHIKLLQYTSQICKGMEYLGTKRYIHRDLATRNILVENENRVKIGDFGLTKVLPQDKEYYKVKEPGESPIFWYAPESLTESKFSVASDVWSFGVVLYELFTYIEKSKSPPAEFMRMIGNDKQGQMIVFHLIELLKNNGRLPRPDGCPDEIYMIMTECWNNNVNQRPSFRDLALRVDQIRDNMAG
HCK, sequence (P08631 whole entry): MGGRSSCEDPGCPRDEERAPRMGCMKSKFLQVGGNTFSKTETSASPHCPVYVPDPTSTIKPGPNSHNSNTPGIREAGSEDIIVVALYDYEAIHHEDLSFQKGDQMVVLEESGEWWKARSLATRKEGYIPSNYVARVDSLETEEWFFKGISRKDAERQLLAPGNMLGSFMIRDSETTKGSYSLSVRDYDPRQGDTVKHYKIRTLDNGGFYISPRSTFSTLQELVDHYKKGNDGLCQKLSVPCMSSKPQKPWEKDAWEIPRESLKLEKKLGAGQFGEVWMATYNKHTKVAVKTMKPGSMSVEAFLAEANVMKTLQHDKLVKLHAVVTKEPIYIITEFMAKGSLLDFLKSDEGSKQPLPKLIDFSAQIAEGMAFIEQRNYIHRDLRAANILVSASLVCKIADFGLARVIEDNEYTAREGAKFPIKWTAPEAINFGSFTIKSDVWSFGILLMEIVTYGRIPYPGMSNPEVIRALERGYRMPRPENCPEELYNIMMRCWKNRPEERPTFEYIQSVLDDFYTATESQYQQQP
TESK1, sequence (Q15569 whole entry): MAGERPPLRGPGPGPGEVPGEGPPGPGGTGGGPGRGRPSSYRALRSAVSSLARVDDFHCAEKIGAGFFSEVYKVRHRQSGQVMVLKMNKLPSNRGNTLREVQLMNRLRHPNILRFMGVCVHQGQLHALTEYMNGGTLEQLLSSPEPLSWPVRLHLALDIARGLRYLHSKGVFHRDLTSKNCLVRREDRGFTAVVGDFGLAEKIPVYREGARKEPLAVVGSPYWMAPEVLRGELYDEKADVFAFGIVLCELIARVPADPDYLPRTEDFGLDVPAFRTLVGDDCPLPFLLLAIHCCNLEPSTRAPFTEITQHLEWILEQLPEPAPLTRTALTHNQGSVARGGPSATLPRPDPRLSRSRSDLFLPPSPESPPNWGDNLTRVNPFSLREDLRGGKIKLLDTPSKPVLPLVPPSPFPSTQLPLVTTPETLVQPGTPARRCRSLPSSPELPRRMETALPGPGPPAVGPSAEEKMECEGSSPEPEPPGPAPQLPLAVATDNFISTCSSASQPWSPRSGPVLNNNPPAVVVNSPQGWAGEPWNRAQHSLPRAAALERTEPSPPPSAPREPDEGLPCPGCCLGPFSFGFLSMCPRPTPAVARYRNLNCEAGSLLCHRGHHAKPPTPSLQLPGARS
EPHA5, sequence (P54756 25-1037): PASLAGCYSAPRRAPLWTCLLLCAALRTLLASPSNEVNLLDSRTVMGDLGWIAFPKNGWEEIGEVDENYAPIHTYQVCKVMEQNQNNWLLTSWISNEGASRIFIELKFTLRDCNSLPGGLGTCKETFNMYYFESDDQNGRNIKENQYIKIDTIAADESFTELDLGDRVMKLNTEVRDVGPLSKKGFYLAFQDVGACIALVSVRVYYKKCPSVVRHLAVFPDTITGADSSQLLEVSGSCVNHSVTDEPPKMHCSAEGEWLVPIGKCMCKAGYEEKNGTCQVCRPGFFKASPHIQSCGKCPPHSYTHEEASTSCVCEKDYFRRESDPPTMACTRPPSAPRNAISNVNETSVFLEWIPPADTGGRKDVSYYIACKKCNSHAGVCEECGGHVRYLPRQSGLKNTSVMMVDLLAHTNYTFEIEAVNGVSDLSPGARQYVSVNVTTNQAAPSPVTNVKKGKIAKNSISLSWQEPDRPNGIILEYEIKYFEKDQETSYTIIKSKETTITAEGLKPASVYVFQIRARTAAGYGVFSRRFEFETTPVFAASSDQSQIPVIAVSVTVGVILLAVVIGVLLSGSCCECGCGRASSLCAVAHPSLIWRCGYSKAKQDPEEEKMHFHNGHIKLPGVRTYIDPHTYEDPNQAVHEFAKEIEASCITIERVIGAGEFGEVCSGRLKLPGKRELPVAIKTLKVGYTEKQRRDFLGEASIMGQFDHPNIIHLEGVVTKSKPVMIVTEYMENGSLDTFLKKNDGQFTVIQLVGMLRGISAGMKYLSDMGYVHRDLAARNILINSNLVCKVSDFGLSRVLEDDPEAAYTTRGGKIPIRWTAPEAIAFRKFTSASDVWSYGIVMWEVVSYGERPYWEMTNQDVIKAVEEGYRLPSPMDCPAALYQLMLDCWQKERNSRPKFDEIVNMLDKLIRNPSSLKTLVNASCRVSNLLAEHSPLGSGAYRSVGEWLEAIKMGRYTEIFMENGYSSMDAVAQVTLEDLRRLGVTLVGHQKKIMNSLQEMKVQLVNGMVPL
STK33, sequence (Q9BYT3 whole entry): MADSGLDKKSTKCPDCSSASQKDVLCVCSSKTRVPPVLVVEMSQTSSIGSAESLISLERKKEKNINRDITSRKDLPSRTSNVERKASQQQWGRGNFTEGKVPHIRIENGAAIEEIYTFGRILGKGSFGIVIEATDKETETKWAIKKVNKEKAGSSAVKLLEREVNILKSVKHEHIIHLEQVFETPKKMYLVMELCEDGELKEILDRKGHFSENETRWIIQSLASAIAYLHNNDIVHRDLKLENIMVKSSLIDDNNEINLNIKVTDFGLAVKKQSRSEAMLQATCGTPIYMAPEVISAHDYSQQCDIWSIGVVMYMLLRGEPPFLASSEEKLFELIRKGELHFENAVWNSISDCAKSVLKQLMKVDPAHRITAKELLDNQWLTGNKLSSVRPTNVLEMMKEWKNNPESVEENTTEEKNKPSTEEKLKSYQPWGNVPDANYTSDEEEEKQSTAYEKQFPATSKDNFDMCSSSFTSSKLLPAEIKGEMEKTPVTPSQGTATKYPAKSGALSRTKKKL

| SMILES | remaining activity at 1 µM [1] [%] | remaining activity at 1 µM [2] [%] | remaining activity at 1 µM [3] [%] | % enzyme activity [4] [%] | remaining activity at 1 µM [5] [%] | remaining activity at 1 µM [6] [%] | % enzyme activity [7] [%] | remaining activity at 1 µM [8] [%] | remaining activity at 1 µM [9] [%] | remaining activity at 1 µM [10] [%] | remaining activity at 1 µM [11] [%] | % enzyme activity at 1 μM [12] | remaining activity at 1 µM [13] [%] | remaining activity at 1 µM [14] [%] |
| --- | --- | --- | --- | --- | --- | --- | --- | --- | --- | --- | --- | --- | --- | --- |
| COc1cc(-c2cncc(-c3ccc(N4CCN(C)CC4)cc3)c2C)cc(F)c1C(N)=O [Compound 26a, 2-Fluoro-6-methoxy-4-(4-methyl-5-(4-(4-methylpiperazin-1-yl)phenyl)pyridin-3-yl)benzamide] | 65.9 | 93.5 | 93.6 | 100.65 | 95 | 105 | 88.77 | 92.2 | 94.9 | 80.7 | 114 | 2.65% | 94.7 | 103 |
| COc1cc(-c2cncc(-c3ccc(N4C[C@@H](C)N(C)[C@@H](C)C4)cc3)c2C)cc(F)c1C(N)=O [Compound 26c, 2-Fluoro-6-methoxy-4-(4-methyl-5-(4-((3R,5S)-3,4,5-trimethylpiperazin-1-yl)phenyl)pyridin-3-yl)benzamide] | 78.8 | 88.6 | 91.8 | 107.66 | 94.7 | 98.6 | 96.94 | 92.7 | 98.3 | 96.1 | 105 | 4.67% and 4.38% | 95.5 | 95.4 |
